Assay results reported in patent US6057351A, “Compounds of the 3-aryl 2,4 dioxo oxazolidine family and use thereof in cosmetic and pharmaceuticals” (Societe L'Oreal S.A., priority 1996, dated 2000).
pIC50: −log10 of the molar value.

Tests used:
androgen receiver = target: T1, androgen receiver (Rattus norvegicus, UniProt P15207); assay: Affinity for the androgen receiver (Schilling and Liao method), inhibition of testosterone fixation; assay type: binding
T1 sequence (P15207 1-902): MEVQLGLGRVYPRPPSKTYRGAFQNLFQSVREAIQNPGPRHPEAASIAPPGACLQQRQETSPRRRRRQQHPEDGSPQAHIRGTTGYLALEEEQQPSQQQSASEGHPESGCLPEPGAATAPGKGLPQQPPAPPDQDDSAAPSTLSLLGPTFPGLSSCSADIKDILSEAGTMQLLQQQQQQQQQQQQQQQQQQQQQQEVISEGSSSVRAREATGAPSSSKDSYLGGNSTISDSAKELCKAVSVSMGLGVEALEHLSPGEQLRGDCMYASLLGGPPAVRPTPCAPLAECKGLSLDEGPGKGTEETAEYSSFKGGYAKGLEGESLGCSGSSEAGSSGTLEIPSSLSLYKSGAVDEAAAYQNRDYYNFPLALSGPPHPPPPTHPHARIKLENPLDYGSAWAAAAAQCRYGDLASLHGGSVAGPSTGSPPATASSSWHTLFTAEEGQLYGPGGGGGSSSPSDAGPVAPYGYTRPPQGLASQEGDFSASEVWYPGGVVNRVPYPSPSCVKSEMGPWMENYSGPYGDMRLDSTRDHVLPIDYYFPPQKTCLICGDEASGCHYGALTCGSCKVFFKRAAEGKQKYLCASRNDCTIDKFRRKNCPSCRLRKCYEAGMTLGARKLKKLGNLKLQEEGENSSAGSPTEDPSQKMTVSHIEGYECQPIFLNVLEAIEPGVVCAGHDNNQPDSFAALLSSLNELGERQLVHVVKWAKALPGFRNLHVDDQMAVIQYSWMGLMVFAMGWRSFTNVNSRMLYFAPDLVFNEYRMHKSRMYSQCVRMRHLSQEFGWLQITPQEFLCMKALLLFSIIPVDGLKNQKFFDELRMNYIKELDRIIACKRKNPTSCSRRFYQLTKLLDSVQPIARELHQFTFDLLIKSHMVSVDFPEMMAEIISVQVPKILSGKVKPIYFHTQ
Description: Measuring the affinity of the 4-(5-methyl-2,4-dioxo-5-trifluoromethyl)-oxazolidin-3-yp)-2-trifluoromethylbenzonitrile for the androgen receiver.
These measurements of receiving affinity for the androgen receiver are executed according to the Schilling and Liao method, described in "The Prostate", 1984, 5.p. 581-588.
The compound is tested at several concentrations. During the experiment, the reference molecule(mibolerone) is tested at the same time at 8 concentrations in order to validate the experiment.
The results are expressed in % of inhibition of the fixation of the testosterone on its receiver. The internal reference (mibolerone) inhibits up to 50% of this fixation at a concentration of 4.3 nM.

thoracic aorta rings = assay: "Potassic canal opener" type activity: in vitro relaxing power on thoracic aorta rings contracted by KCl 20 mM; assay type: cell-based
Description: Measurement of the "potassic canal opener" type activity of the 4-(5-methyl-2,4-dioxo-5-trifluoromethyl)-oxazolidin-3-yl)-2-trifluoromethylbenzonitrile by measuring in vitro the relaxing power of the molecules of thoracic aorta rings.
The experiments are carried out according to the Newgreen et al (Br. J. Pharmacol., 100, 1990, p. 605-613), Bray et al (Arch. Pharmacol., 344, 1991, p. 351-359) and Wickerden et al (Br. J. Pharmacol., 103, 1991, 1148-1152) methods.
After placing the tissues in the isolated organ tanks, they (smooth aortic muscles) are subjected to an initial tension of 2 g.
After a period of equilibration, the tissues are exposed to a potassium chloride solution (KCl, at 20 mM) in order to obtain a sustained contractile response. After stabilization of this contractile response, the relaxing activity (of the potassic canal opener type) of the molecules to be tested is evaluated in response doses.
During the experiment, two reference molecules are used: cromakalim and Minoxidil.
Results expressed in % of inhibition of the contraction provoked by the KCl at 20 mM.

Question: How did the inhibition at 0.1 µM (androgen receiver; compound at 0.1 μM, read-out: % of inhibition of the fixation of the testosterone on its receiver) turn out when `CC1(C(F)(F)F)OC(=O)N(c2ccc(C#N)c(C(F)(F)F)c2)C1=O` (centres unmarked) [4-(5-methyl-2,4-dioxo-5-trifluoromethyl)-oxazolidin-3-yl)-2-trifluoromethylbenzonitrile] was run?
Answer: 2%

Question: What about the inhibition at 1 µM (androgen receiver; compound at 1 μM, read-out: % of inhibition of the fixation of the testosterone on its receiver) of the same compound?
Answer: 17%

Question: And the inhibition at 10 µM (androgen receiver; compound at 10 μM, read-out: % of inhibition of the fixation of the testosterone on its receiver)?
Answer: 56%

Question: What about the “% of inhibition of the contraction provoked by the KCl at 20 mM” value (“% of inhibition … at 20 mM” for short) (thoracic aorta rings; compound at 0.1 μM) of the same compound?
Answer: 12%

Question: What about the “% of inhibition … at 20 mM” value (thoracic aorta rings; compound at 1 μM) of the same compound?
Answer: 69%

Question: What about the “% of inhibition … at 20 mM” value (thoracic aorta rings; compound at 10 μM) of the same compound?
Answer: 95%

Question: And the “activity profile (potassic canal opener / anti-androgen)” value (thoracic aorta rings; conclusion drawn from the results of Examples 2 and 3)?
Answer: mixed activity, with a preferred activity for the K* Agonist facet

Question: `CC1(C)Oc2ccc(C#N)cc2C(N2CCCC2=O)C1O` (centres unmarked) [Cromakalim, cromakalim] was tested. Which “% of inhibition … at 20 mM” value (thoracic aorta rings; compound at 0.1 μM) did it give?
Answer: 46%

Question: And the “% of inhibition … at 20 mM” value (thoracic aorta rings; compound at 1 μM)?
Answer: 86%

Question: And the “% of inhibition … at 20 mM” value (thoracic aorta rings; compound at 10 μM)?
Answer: 100%

Question: What does the source list for `Nc1cc(N2CCCCC2)nc(N)[n+]1[O-]` [Minoxidil, 3-oxide pyrimidine 6-piperidino 2,4-diamino]?
Answer: % of inhibition of the contraction provoked by the KCl at 20 mM (thoracic aorta rings; compound at 0.1 μM): 25%; % of inhibition of the contraction provoked by the KCl at 20 mM (thoracic aorta rings; compound at 1 μM): 65%; % of inhibition of the contraction provoked by the KCl at 20 mM (thoracic aorta rings; compound at 10 μM): 95%

Question: With `C[C@@H]1CC2=CC(=O)CC[C@@H]2[C@H]2CC[C@@]3(C)[C@@H](CC[C@]3(C)O)[C@@H]21` [mibolerone] as the compound, how does the pIC50 (androgen receiver) read?
Answer: 8.37
